{"source": "paper PMC12278908", "about": "“Genome integrity sensing by the broad-spectrum Hachiman antiphage defense complex” (Cell, 2024)", "target": "T1, HamAB (Escherichia coli, UniProt A0A426EXV0)", "T1 construct": "gene DU321_04165; native locus coexpressed in E. coli BL21-AI; only HamA tagged 10xHis-MBP-TEV, TEV-treated; 1:1 heterodimer; with Hachiman antiphage defense system nuclease HamA (DUF1837 domain-containing protein)", "T1 sequence (A0A426EXV0 1-1174)": "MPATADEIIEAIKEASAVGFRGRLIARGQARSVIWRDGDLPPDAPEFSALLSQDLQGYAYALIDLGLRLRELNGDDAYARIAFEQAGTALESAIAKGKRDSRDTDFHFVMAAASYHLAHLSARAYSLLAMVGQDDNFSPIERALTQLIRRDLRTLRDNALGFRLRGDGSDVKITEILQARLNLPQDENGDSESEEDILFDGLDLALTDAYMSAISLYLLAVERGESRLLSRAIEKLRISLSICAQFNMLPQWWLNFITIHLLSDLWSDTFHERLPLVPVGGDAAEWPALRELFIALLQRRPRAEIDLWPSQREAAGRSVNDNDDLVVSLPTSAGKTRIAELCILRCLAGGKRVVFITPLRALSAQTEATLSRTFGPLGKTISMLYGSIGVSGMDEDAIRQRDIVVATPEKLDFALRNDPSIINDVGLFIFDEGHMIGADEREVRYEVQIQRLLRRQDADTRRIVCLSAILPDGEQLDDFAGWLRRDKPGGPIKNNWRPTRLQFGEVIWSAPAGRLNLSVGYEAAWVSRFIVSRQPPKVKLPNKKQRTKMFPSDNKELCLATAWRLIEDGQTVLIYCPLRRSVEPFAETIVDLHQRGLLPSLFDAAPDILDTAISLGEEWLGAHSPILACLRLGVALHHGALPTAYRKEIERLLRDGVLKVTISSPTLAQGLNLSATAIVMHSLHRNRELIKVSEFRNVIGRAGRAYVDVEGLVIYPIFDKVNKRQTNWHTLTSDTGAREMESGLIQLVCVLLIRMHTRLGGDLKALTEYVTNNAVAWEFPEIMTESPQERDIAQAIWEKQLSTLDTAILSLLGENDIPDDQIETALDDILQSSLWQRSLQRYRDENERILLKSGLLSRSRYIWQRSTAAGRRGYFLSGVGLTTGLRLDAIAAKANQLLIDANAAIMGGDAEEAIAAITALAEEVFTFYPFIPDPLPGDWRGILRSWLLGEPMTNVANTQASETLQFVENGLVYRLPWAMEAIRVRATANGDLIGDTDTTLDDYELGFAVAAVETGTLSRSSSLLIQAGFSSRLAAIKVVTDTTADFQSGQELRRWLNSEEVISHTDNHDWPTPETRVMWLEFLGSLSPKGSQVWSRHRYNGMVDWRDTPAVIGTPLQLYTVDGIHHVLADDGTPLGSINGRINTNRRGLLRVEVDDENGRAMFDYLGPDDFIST", "T1 sequence (Q6XGE5 1-259 partner)": "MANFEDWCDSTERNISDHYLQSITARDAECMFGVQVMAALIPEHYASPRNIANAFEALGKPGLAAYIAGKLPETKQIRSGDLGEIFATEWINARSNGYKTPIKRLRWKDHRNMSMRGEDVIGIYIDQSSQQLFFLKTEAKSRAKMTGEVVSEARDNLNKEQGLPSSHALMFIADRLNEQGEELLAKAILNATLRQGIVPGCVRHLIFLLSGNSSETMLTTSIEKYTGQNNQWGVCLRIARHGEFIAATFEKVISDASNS", "experiment": "malachite green phosphate release ATPase assay", "type": "biochemical", "settings": "with or without supercoiled plasmid DNA; 1 mM ATP, 2 mM MgSO4, pH 8.8, 37 °C"}
{"smiles": "Nc1ncnc2c1ncn2[C@@H]1O[C@H](COP(=O)(O)OP(=O)(O)OP(=O)(O)O)[C@@H](O)[C@H]1O", "note": "[ATP]", "values": [{"measurement": "malachite green phosphate release ATPase assay", "result": "ATPase assays with HamB, HamAB, and HamA*B in the presence of plasmid DNA"}]}
